Experimental data reported in ChEMBL document CHEMBL2021902, “Type 1 phototherapeutic agents, part I: preparation and cancer cell viability studies of novel photolabile sulfenamides” (ACS Med Chem Lett, 2011).
The source made the active and inactive calls. The calls are words filed in the database; no cut-off is given here.

How the values were obtained:
Type in all cases: functional, cell-based
U-937 = experiment: Cytotoxicity in UV-irradiated human U937 cells exposed to photosensitizer for 2 hrs before irradiation for 20 mins by WST-1 assay; details: for IC50: U-937, light or radiation study
HCT-116 = experiment: Cytotoxicity in UV-irradiated human HCT116 cells exposed to photosensitizer for 2 hrs before irradiation for 20 mins by WST-1 assay
HT-29 = experiment: Cytotoxicity in UV-irradiated human HT-29 cells exposed to photosensitizer for 2 hrs before irradiation for 20 mins by WST-1 assay
KB = experiment: Cytotoxicity in UV-irradiated human KB cells exposed to photosensitizer for 2 hrs before irradiation for 20 mins by WST-1 assay

Row | SMILES | Activity (U-937) | IC50 (U-937) [µM] | Activity (HCT-116) | Activity (HT-29) | Activity (KB)
1 | O=[N+]([O-])c1ccc(SN2Cc3ccccc3-c3ccccc32)cc1 | Dose-dependent effect | 7.3 |  |  | 
2 | O=[N+]([O-])c1ccc(SN2c3ccccc3Cc3ccccc32)cc1 | Dose-dependent effect | 1.3 | Active | Active | Active
3 | O=[N+]([O-])c1ccc(SN2c3ccccc3Sc3ccccc32)cc1 | Dose-dependent effect | 12.4 |  |  | 
4 | CC1=Nc2ccc(Cl)cc2N(Sc2ccc([N+](=O)[O-])cc2)c2ccccc21 | Dose-dependent effect | 2 |  |  | 
5 | O=[N+]([O-])c1ccc(SN2c3ccccc3Oc3ccccc32)cc1 | Dose-dependent effect | > 20 |  |  | 
6 | O=[N+]([O-])c1ccc(Sn2c3ccccc3c3ccccc32)cc1 | Dose-dependent effect | > 20 |  |  | 
7 | O=[N+]([O-])c1ccc(SN2Cc3ccccc3Oc3ccccc32)cc1 | Dose-dependent effect | 17.2 |  |  | 
8 | O=[N+]([O-])c1ccc(SN2CCc3ccccc3-c3ccccc32)cc1 | Dose-dependent effect | 6 |  |  | 
9 | O=[N+]([O-])c1ccc(SN(c2ccccc2)c2ccccc2)cc1 | Dose-dependent effect | 6.8 |  |  | 
10 | O=[N+]([O-])c1ccc(SN2c3ccccc3N=Nc3ccccc32)cc1 | Dose-dependent effect | > 20 |  |  | 
11 | O=[N+]([O-])c1ccc(SN2Cc3ccccc3Cc3ccccc32)cc1 | Dose-dependent effect | 5.7 |  |  | 
12 | O=[N+]([O-])c1ccc(SN2c3ccccc3C=Cc3ccccc32)cc1 | Dose-dependent effect | 1.2 | Active | Active | Active
